Reference: patent publication US10745434B2, “Uridine phosphoramide prodrug, preparation method therefor, and medicinal uses thereof” (priority 2016, dated 2020)
Read-outs that look alike come from different tables or passages of the source. Blank lines part the entries; values can stand above or below the compound they belong to.

Experiments:
[1] = system: HCV GT1b replicons; test: Anti-HCV replicon activity, HCV GT1b stable transfection replicon cell line (luciferase); assay type: cell-based, hepatitis C virus (HCV) genotype (GT) 1b
Method: (§1) A hepatitis C virus (HCV) genotype (GT) 1b stable transfection replicon cell line system was used to determine the inhibitory activity of the compounds to the HCV GT1b replicons. In this experiment, the compound 06a (GS-7977) was used as a control compound to monitor the experimental quality.
(§2) [drawing 4] 2. Compound dilution: 20 mM mother liquor was prepared by using 100% DMSO, and the compound DMSO mother liquor was diluted and added to a 96-well experiment plate. The final concentration of the DMSO was 0.5%. In in-vitro anti-HCV activity experiments and cytotoxicity experiments, all compounds had the initial concentration of 20 microns, and were diluted by 5 times of dilution. The final concentration of the DMSO of 6 concentrations were 0.5%. 3. Cell treatment: HCV-1b replicon sub-cells were added to the above 96-well cell plate (8,000 cells/well), and then placed into an incubator of 37 DEG C. and 5% CO2 for culturing for 3 days. 4. Cell activity detection: a cell growth fluorescent titration detection reagent was added to each well; after the cells were cultured for 1 hour in the incubator of 37 DEG C. and 5% CO2, a spectrophotometer detection system Envision was used to detect a Fluorescence signal value. The original data, i.e, relative fluorescence units (RFUs), was used for the calculation of the cell toxicity of the compounds. 5. Anti-HCV replicon activity detection: a luciferase light-emitting substrate bright-GLO was added to each well, and a chemiluminescence detection system Envision was used for detecting a Luminescence signal value in 5 minutes. The original data, i.e., relative light units (RLUs), was used for the calculation of the inhibitory activity of the compounds. 6. Data processing: the RFUs obtained in step 1.3 were processed into a cell activity percentage by using the following formula: […]
The RLUs obtained in step 1.4 were processed into a inhibition percentage by using the following formula:
[formula] *CPD: signal values of compound wells HPE (high percent effect): 100% effective action control well signal value, with only DMEM culture solution in the wells; The ZPE (zero percent effect): noneffective control well signal value, with 0.5% DMSO to replace the compound.
(§3) The cell activity percentage and the inhibition percentage were respectively imported into GraphPad Prism software for data processing to obtain curves corresponding to the compounds and their values of cytotoxicity (CC50) and inhibitory activity (ECD50) to the HCV replicons.

[2] = Cytotoxicity in HCV-1b replicon cells (cell growth fluorescent titration); assay type: cell-based; settings: HCV genotype 1b stably transfected replicon cells, HCV GT1b replicon cells
Method: as §1, §2, §3

[3] = Simulated gastric liquid stability; assay type: in vitro ADME
[4] = Human plasma stability; assay type: in vitro ADME; settings: test concentration 2 μM
Method: 3. Human Plasma Stability (Test Concentration: 2 μM), See Table 4.

[5] = Simulated intestinal fluid stability; assay type: in vitro ADME; settings: test concentration 10 μM
Method: 2. Simulated Intestinal Fluid Stability (Test Concentration: 10 μM), See Table 3: […]

[6] = Human liver S9 stability; assay type: in vitro ADME; settings: human liver S9, test concentration 1 μM
Method: 4. Human Liver S9 Stability Parameters (Test Concentration: 1 μM), See Table 5.

[7] = molecular target: T1, herg potassium ion channel (Homo sapiens, UniProt Q12809); test: In vitro cardiotoxicity, hERG manual patch clamp in CHO cells; assay type: cell-based
T1 construct: host or cells: CHO cells stably expressing hERG
T1 sequence (Q12809 whole entry): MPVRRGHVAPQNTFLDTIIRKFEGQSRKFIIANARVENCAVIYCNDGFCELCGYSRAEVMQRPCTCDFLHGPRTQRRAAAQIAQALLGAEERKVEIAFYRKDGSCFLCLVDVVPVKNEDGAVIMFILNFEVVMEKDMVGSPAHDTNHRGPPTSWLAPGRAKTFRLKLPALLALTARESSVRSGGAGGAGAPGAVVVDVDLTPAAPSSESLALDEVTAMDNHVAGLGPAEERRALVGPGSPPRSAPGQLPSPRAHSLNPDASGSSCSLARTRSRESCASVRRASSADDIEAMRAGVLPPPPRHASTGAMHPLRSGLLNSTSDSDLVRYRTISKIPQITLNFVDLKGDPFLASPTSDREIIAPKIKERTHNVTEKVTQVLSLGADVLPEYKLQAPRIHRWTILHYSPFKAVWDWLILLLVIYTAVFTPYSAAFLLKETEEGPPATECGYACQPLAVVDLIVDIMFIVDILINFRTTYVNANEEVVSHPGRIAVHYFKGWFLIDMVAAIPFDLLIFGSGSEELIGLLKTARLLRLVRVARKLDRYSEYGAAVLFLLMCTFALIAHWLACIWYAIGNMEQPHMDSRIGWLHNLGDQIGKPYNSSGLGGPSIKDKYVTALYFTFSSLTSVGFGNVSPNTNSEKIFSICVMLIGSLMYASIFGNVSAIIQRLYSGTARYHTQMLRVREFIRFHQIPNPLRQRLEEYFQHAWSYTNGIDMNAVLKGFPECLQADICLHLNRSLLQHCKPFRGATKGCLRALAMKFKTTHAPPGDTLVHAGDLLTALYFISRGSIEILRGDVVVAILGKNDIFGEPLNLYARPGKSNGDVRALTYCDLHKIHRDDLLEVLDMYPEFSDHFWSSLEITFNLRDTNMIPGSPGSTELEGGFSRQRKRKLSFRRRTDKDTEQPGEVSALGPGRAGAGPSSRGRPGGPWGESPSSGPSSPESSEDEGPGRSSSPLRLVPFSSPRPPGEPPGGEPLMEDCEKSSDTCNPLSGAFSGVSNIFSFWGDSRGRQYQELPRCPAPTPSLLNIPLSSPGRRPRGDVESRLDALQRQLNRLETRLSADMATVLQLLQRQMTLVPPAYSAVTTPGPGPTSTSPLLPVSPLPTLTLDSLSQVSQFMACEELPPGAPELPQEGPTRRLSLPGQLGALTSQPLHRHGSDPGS
Method: The experiment adopted CHO cells which can stably express the herg potassium ion channel from AVivaBiosciences company, wherein the cells were incubated in a constant-humidity environment at the temperature of 37 DEG C. with 5% CO2.
The compounds were tested on a Multiclamp patch-clamp amplifier at room temperature; the output signals were digitized by using a DLigital 1440 A/D-D/A board; the PCLAMP 10 software was used for recording and controlling. The minimum sealing resistance was set to 500 MOhms and the minimum specific hERG current was set to 0.4 nA for quality control.
Clampfit (V10.2, Molecular Devices), Excel 2003 and GraphPad Prism 5.0 were used for data analysis.

[8] = Hepatitis C virus, GT1B, 72 h, read-out: EC50 anti-HCV replicon activity, HCV GT1b replicons, 3 days, maximum test concentration 20 μM
[9] = read-out: EC50 anti-HCV replicon activity, HCV GT1b replicons, 3 days, maximum test concentration 20 μM

SMILES: COc1ccccc1COP(=O)(N[C@@H](C)C(=O)OC(C)C)OC[C@H]1O[C@@H](n2ccc(=O)[nH]c2=O)[C@](C)(F)[C@@H]1O (stereo partly shown) [Compound 03]
EC50 [1, 8]: > 20 µM | CC50 at 3 days [2]: > 20 µM

SMILES: Cc1ccc(COP(=O)(N[C@@H](C)C(=O)OC(C)C)OC[C@H]2O[C@@H](n3ccc(=O)[nH]c3=O)[C@](C)(F)[C@@H]2O)cc1 (stereo partly shown) [Compound 04]
EC50 [1, 8]: 10 to 20 µM | EC50 [1, 9]: 15.2 µM | CC50 at 3 days [2]: > 20 µM

SMILES: COc1ccc(COP(=O)(N[C@@H](C)C(=O)OC(C)C)OC[C@H]2O[C@@H](n3ccc(=O)[nH]c3=O)[C@](C)(F)[C@@H]2O)cc1 (stereo partly shown) [Compound 05]
EC50 [1, 8]: > 20 µM | CC50 at 3 days [2]: > 20 µM

% 0 h residual percentage ([3]; 20 μM): 100% | % 1 h residual percentage ([3]; 20 μM): 5.24% | % 2 h residual percentage ([3]; 20 μM): 2.76% | % 6 h residual percentage ([3]; 20 μM): 0.20% | % 24 h residual percentage ([3]; 20 μM): 0.00%
SMILES: COc1ccc2[nH]c([S+]([O-])Cc3ncc(C)c(OC)c3C)nc2c1 (stereo not shown) [Omeprazole]

SMILES: CC(C)OC(=O)[C@H](C)NP(=O)(OC[C@H]1O[C@@H](n2ccc(=O)[nH]c2=O)[C@](C)(F)[C@@H]1O)Oc1ccccc1 (stereo partly shown) [Patent compound 06 in 2008]
EC50 [1, 8]: < 10 µM | EC50 [1, 9]: 9.82 µM | % 0 h residual percentage ([3]; test concentration 10 μM): 100% | % 1 h residual percentage ([3]; test concentration 10 μM): 95.19% | % 2 h residual percentage ([3]; test concentration 10 μM): 98.47% | % 6 h residual percentage ([3]; test concentration 10 μM): 84.08% | % 24 h residual percentage ([3]; test concentration 10 μM): 49.36% | % 0 min residual percentage [4]: 100% | % 10 min residual percentage [4]: 78.8% | % 30 min residual percentage [4]: 70.9% | % 60 min residual percentage [4]: 72.0% | % 120 min residual percentage [4]: 65.3% | CC50 at 3 days [2]: > 20 µM | % 0 h residual percentage ([5]; 0 h): 100% | % 1 h residual percentage ([5]; 1 h): 0.00% | % 2 h residual percentage ([5]; 2 h): 0.00% | % 6 h residual percentage ([5]; 6 h): 0.00% | % 24 h residual percentage ([5]; 24 h): 0.00% | CLlint(s9) [6]: 6.0 µL/min/mg | half-life at 1 μM [6]: 1.92 h | Remaining % (NCF = 1 h) ([6]; NCF = 1 h): 64.0% | Remaining % (T = 1 h) ([6]; T = 1 h): 58.6% | CLlint(s9) ([6]; scaled per kg): 1.27 mL/h/kg

SMILES: CC(C)OC(=O)[C@H](C)N[P@](=O)(OC[C@H]1O[C@@H](n2ccc(=O)[nH]c2=O)[C@](C)(F)[C@@H]1O)Oc1ccccc1 [Patent compound 06a in 2010]
IC50 [7]: > 10 µM | EC50 [1, 8]: 0.719 µM | CC50 at 3 days [2]: > 3 µM

% 0 min residual percentage [4]: 100% | % 10 min residual percentage [4]: 53.3% | % 30 min residual percentage [4]: 14.3% | % 60 min residual percentage [4]: 2.2% | % 120 min residual percentage [4]: 0.0%
SMILES: CC(C)[N+](C)(CCOC(=O)C1c2ccccc2Oc2ccccc21)C(C)C [Propantheline]
